Assay results as given in publication PMC3940891, “Transient Overexpression of adh8a Increases Allyl Alcohol Toxicity in Zebrafish Embryos” (PLoS ONE, 2014).
Converted amounts (≈) assume the structure as drawn. “Also recorded” adds a separate entry of the source. Read-outs that look alike come from different tables or passages of the source.

Legend:
[1] = source not given; cited from earlier work
[2] = system: gfp, adh8a, adh8b mRNA injected zebrafish embryos; test: Zebrafish embryo test after microinjection of gfp, adh8a, adh8b or adh8a/b mRNA; assay type: in vivo, zebrafish (Danio rerio); details: for increase in acute toxicity in response to injection of adh8 mRNA: gfp, adh8a, adh8b, adh8a/b mRNA injected embryos
Procedure: (§1) The zebrafish embryo test was performed with few modifications according to a standard operation procedure and a static exposure setup without renewal of exposure solutions (ISO 15088, 2006). The following chemicals were used: Allyl alcohol (CAS 107-18-6, purity 99.8%, Sigma-Aldrich, Deisenhofen, Germany), acrolein (CAS 107-02-8, purity ≥99.0%, Sigma-Aldrich, Deisenhofen, Germany), 4-Nitrophenol (CAS 100-02-7, PESTANAL, analytical standard, Sigma-Aldrich, Deisenhofen, Germany), and ethanol (CAS 64-17-5, purity ≥ 99.5%, Carl Roth, Germany). Stock solutions were prepared for each experiment by adding the appropriate amount for the highest test concentration to the exposure media (294.0 mg/L CaCl2*2H2O, 123.3 mg/L MgSO4*7H2O, 64.7 mg/L NaHCO3, 5.7 mg/L KCl). The solutions were prepared one day before the experiment in 100 ml closed graduated flasks and were stirred over night for approximately 14 h. Lower concentrations were obtained by serial dilutions. Fertilized eggs (embryos at 4–32 cell stage) were transferred by a pipette to 24-well plates (1 embryo per well, 10 wells per exposure concentration, Cellstar Greiner Bio-One, Frickenhausen, Germany) or crystallization glass dishes (80 mm diameter, 10–20 embryos per vial and 30 ml of exposure medium), respectively. Exposures were performed in independent triplicates on different days for 48 h from 2-50 hpf (hours post fertilization), 24–72 hpf, and 72–120 hpf. For the 24–72 hpf exposure, part of the embryos were manually dechorionated using forceps. […] At either 2, 8, 24 or 72 hpf the medium was completely removed and replaced by exposure media containing different concentrations of allyl alcohol (2 ml per well or 30 ml per crystallization dish, respectively). The Henry's law coefficients of the test chemicals (allyl alcohol: 4.99*10^−6, ethanol: 5.62*10^−6, 4-nitrophenol: 4.15*10^−10, acrolein: 1.22*10^−4; atm*m^3/mol) indicate a weak volatility for ethanol, allyl alcohol and acrolein. Therefore, in order to reduce potential evaporation, 24-well plates were covered with an adhesive foil; crystallization dishes were covered with a household plastic wrap and watch glasses. For comparison of the LC50 at different stages and the effect of dechorionation, exposure was performed in 24-well plates. For gene expression analysis and microinjection experiments crystallization dishes were used for exposure.
(§2) After 48 h of exposure referring to 50, 72 or 120 hpf stages, the number of dead embryos was counted. Dead embryos were detected according to the criteria given in the ISO standard; i.e., either coagulation, missing heartbeat, failure to develop somites or a lack of detachment of the tail-bud from the yolk sac were considered as indicators of lethality.
(§3) Injection needles were pulled from borosilicate glass capillary tubes with filament (GC100F-10; Warner Instruments, LLC, Hamden, CT) using a Narishige micropipette puller (Tokyo, Japan). Embryos were injected with the Eppendorf FemtoJet (Hamburg, Germany) through the chorion into the yolk compartment at the one-cell stage.
(§4) Plasmids with either the cDNA sequence of adh8a or adh8b were purchased from ImaGenes (Berlin, Germany, clone numbers IRBOp991G0334D for adh8a and IRBOp991F02101D for adh8b). The GFP open reading frame was cloned into the pCS2p+ Vector. For synthesis of capped mRNAs, adh8 plasmids were cut with XhoI and pCS2P+GFP was cut with KpnI. 5′ capped mRNA was synthesized with the mMessage Machine SP6 Kit (Life Technologies/Ambion, Darmstadt, Germany) according to the manufacturer's instructions. Injected mRNA concentration was 20–50 ng/µl. Phenol red was added to the RNA samples before injection (0.1% final concentration) in order to allow tracking of successful injections.
(§5) The LC50 values ± asymmetric 95% confidence intervals were calculated using the software JMP (SAS, Cary, NC) using the Hill-slope equation for modeling of concentration-response curves: [drawing 1] […]

fathead minnow = details: cited from earlier work; for LC50: fathead minnow ref 27
[3] = Quantification of internal allyl alcohol concentration in mRNA-injected embryos by HS-GC-MS; assay type: in vivo, zebrafish (Danio rerio)
Procedure: 50 injected embryos were exposed from 8 hpf to 26 hpf with 0.5 or 1 mg/L allyl alcohol. At 26 hpf embryos were manually dechorionated using forceps and transferred into fresh 20 ml glass vials. The exposure medium was removed and embryos were rinsed twice with 2 ml ISO water for 30 sec, transferred into GC-MS headspace vials (Agilent Technologies, Böblingen, Germany). After removal of remaining fluid by using a microliter pipette the vials were closed and embryos were frozen at −20°C for 10 min. Subsequently, embryos were homogenized by 5 min sonication in an ultrasonic bath (Sonorex RK 512 H; Bandelin Electronic, 35 kHz). Chemical analyses were performed immediately after sonication using an Agilent 7890A gas chromatograph with headspace sampler G1888 (Agilent Technologies, Böblingen, Germany). The headspace oven temperature for equilibration of samples was set to 48°C for 10 min. The compound separation was performed using a capillary column (60 m×0.25 i.d.) with a nonpolar stationary phase HP1 (thickness 1.00 µm). Ultra high purity helium was used as carrier gas. Mass spectra were derived with Agilent 5975C inert XL MSD and Triple Axis Detector (Agilent Technologies,) in electron impact ionization mode 70eV. The detector conditions were: ion source temperature 230°C and quadrupole temperature 150°C. The column oven temperature program involved an initial temperature of 45°C for 1 min, an increase at 15°C/min to 150°C (held for 2 min), then an increase at 65°C/min to 250°C (held 0.5 min). The mass spectrometer was operated in selected ion monitoring (SIM) mode for calibration and analyte quantification in samples.
For the allyl alcohol calibration the following concentrations were used: 8.5; 42.5; 85; 425; 850 and 1700 µg/L. 5 µl of the respected concentration were transferred into a headspace vial and directly used for HS-GC-MS analysis. The calibration curve was generated based on peak areas. Exposure concentrations were determined for each replicate at the start of the exposure.

zebrafish embryos = test: Zebrafish embryo test (acute lethality, 48 h static exposure), non-injected embryos; assay type: in vivo, zebrafish (Danio rerio)
Procedure: as §1, §2
The LC50 values ± asymmetric 95% confidence intervals were calculated using the software JMP (SAS, Cary, NC) using the Hill-slope equation for modeling of concentration-response curves: [drawing 1]
Min and Max were set to 0 and 100%, respectively. x and y represented the nominal exposure concentration and the survival rate (percentage).

zebrafish embryo = details: cited from earlier work
[4] = system: adh8a mRNA injected zebrafish embryos; test: Time-lapse recording of adh8a mRNA injected embryos exposed to allyl alcohol; assay type: in vivo; details: 5 mg/L allyl alcohol, 24-wells
Procedure: For time lapse recording of zebrafish embryos were performed using a Leica DMI4000 B inverted microscope (Leica, Wetzlar, Germany), equipped with a digital camera (DFC 350FX; Leica) and 5× objective (HCX PL FLUOTAR, 5.0×0.15 DRY). adh8a mRNA injected were exposed to 5mg/L allyl alcohol in 24-well plates (2 embryos per 2 ml). A constant temperature of 26°C was maintained with a heated stage insert. Embryos were imaged by bright filed every 20 min for 20 h. Images were analyzed using LAS AF software (Leica, Wetzlar, Germany). Video was exported using 3 frames per second.

[5] = set-up: method as in PMID 22835061; details: cited from earlier work; for measured concentration as % of nominal concentration: 24-well plates ref 18
adult zebrafish = system: adult zebrafish; set-up: method as in PMID 22835061; details: adult zebrafish ref 18; cited from earlier work
[6] = Zebrafish embryo test after microinjection of gfp, adh8a, adh8b or adh8a/b mRNA; assay type: in vivo, zebrafish (Danio rerio); details: OBI, zebrafish, in vivo, other: static waterborne exposure in exposure medium, exposure 8-56 h, with chorion, crystallization dish, strain OBI
Procedure: as §1, §2, §3, §4, §5

[7] = adh8a mRNA injected, exposure 8-56 h, with chorion, crystallization dish, strain OBI
[8] = adh8b mRNA injected, exposure 8-56 h, with chorion, crystallization dish, strain OBI
[9] = gfp mRNA injected, exposure 8-56 h, with chorion, crystallization dish, strain OBI

In the case of `CCO` [ethanol], the “Henry's law coefficient” value [1] is given as 5.62*10^−6 atm*m^3/mol, the LC50 [2, 7] is given as 18570 µg/mL and the LC50 ([2]; adh8a/b mRNA injected, exposure 8-56 h, with chorion, crystallization dish, strain OBI) is given as 17780 µg/mL. For the same compound, the LC50 [2, 8] was 16310 µg/mL, the LC50 [2, 9] was 19170 µg/mL and the “increase in acute toxicity in response to injection of adh8 mRNA” value [2] was “did not detect any increase”. The LC50 (fathead minnow; adult fish) was 14700 µg/mL (≈ 319000 µM).

In the case of `C=CC=O` [acrolein], the “Henry's law coefficient” value [1] is given as 1.22*10^−4 atm*m^3/mol, the “acrolein detection in GC/MS chromatograms” value ([3]; adh8a injected embryos exposed to allyl alcohol) is given as “could not detect acrolein” and the LC50 (zebrafish embryos; exposure 2-50 hpf, with chorion, no mRNA injected, 24-well plates, strain OBI, n = 1) is given as 0.42 µg/mL. The “fold lower LC50 of acrolein compared with allyl alcohol” value (zebrafish embryos; zebrafish embryos, 2-50 hpf) was ~1000 fold.

In the case of `CC=O` [acetaldehyde], the “fold higher toxicity compared to the parent compound ethanol” value (zebrafish embryo; zebrafish embryo ref 25) is given as ~720 fold and the “fold higher toxicity compared to the parent compound ethanol” value (fathead minnow; adult fish ref 27) is given as “about 435 fold”.

For `C=CCO` [allyl alcohol, Allyl alcohol], the “time to coagulation of the embryos” value [4] is listed as 3 to 9 h, the “Henry's law coefficient” value [1] is listed as 4.99*10^−6 atm*m^3/mol and the “allyl alcohol detection in embryos by GC-MS” value ([3]; adh8a mRNA injected embryos) is listed as “no allyl alcohol was found; also recorded: below the limit of detection”. For the same compound, the “internal allyl alcohol concentration” value ([3]; adh8a mRNA injected, 0.5 mg/L nominal, 8-26 hpf, Repl. 1-3, n.d. = not detectable) was 0 pg/embryo, the “internal allyl alcohol level (below the limit of detection)” value ([3]; adh8a-injected embryos) was < 4.6 µg/L and the “internal allyl alcohol concentration (range)” value ([3]; before decline in adh8a-injected embryos) was 0.23-58 ng/embryo. The “measured concentration as % of nominal concentration” value ([5]; 0 h) was “about 80%”, the “geometric mean of measured concentrations as % of nominal concentration” value ([5]; 24-well plates, 48 h ref 18) was 47% and the “measured concentration as % of nominal concentration” value ([5]; within 48 h of exposure) was “about 28%”. The “fold lower LC50 for exposure from 72-120 hpf compared with earlier stages” value (zebrafish embryos; 72-120 hpf vs earlier exposure periods) was 3 fold, the “sublethal malformations in exposed embryos” value (zebrafish embryos; 48 h exposures) was “No sublethal malformations were observed” and the LC50 (zebrafish embryos; exposure 2-50 hpf, non-injected, read-out: LC50) was 8.2 mM. The LC50 (zebrafish embryos; exposure 2-50 hpf, with chorion, no mRNA injected, 24-well plates, strain WIK) was 478 µg/mL, the LC50 (zebrafish embryos; exposure 8-56 h, with chorion, non-injected control, crystallization dish, strain OBI) was 328 µg/mL and the LC50 (zebrafish embryos; exposure 24-72 hpf, with chorion (value paired with 451 mg/L), read-out: LC50) was 7.7 mM. It also gave an LC50 (zebrafish embryos; exposure 24-72 hpf, with chorion, no mRNA injected, 24-well plates, strain WIK) of 451 µg/mL, an LC50 (zebrafish embryos; exposure 24-72 hpf, without chorion (manually removed), no mRNA injected, 24-well plates, strain WIK) of 492 µg/mL and an LC50 (zebrafish embryos; exposure 24-72 hpf, without chorion (value paired with 492 mg/L), read-out: LC50) of 8.5 mM. For the same compound, the LC50 (zebrafish embryos; exposure 72-120 hpf, hatched, no mRNA injected, 24-well plates, strain WIK) was 157 µg/mL, the LC50 (zebrafish embryos; exposure 72-120 hpf, hatched, no mRNA injected, 24-well plates, strain WIK, listed as Allyl alcohol) was 159 µg/mL and the LC50 (zebrafish embryos; exposure 72-120 hpf, read-out: LC50) was 2.7 mM. For the same compound, the “time to coagulation of the embryos” value (zebrafish embryos; toxic concentration) was ≤ 24 h, the “fold higher toxic concentrations (lower toxicity) in embryos compared to adult fish” value (zebrafish embryos; zebrafish embryos vs adult fish) was “about 1000 fold” and the LC50 ([2]; adh8a mRNA injected embryos, read-out: LC50) was 0.0134 mM. The LC50 [2, 7] was 0.78 µg/mL, the LC50 ([2]; adh8a/b mRNA (1:1) injected, exposure 8-56 h, with chorion, crystallization dish, strain OBI) was 2.11 µg/mL and the LC50 [2, 8] was 166 µg/mL. For the same compound, the “fold reduction of LC50 by adh8b mRNA injection” value ([2]; adh8b mRNA injections) was 2.5 fold, the “fold reduction of LC50 by adh8a mRNA injection” value ([2]; compared to gfp-injected or non-injected embryos) was “more than 500 fold” and the LC50 [2, 9] was 436 µg/mL. For the same compound, the “LC50 (adult fish)” value (adult zebrafish) was 0.28 µg/mL (≈ 4.82 µM) and the “toxicity level (LC50) in adult fish” value (fathead minnow; fathead minnow ref 19) was 0.32 µg/mL.

For `O=[N+]([O-])c1ccc(O)cc1` [4-Nitrophenol], the “Henry's law coefficient” value [1] is listed as 4.15*10^−10 atm*m^3/mol, the LC50 ([6]; adh8a mRNA injected) is listed as 9.65 µg/mL (≈ 69.4 µM) and the LC50 ([6]; adh8a/b mRNA (1:1) injected) is listed as 10.2 µg/mL (≈ 73.4 µM). The LC50 ([6]; adh8b mRNA injected) was 9.79 µg/mL (≈ 70.4 µM), the LC50 ([6]; gfp mRNA injected) was 9.45 µg/mL (≈ 67.9 µM) and the “increase in acute toxicity in response to injection of adh8 mRNA” value [2] was “did not detect any increase”. The LC50 (zebrafish embryo; zebrafish embryo ref unpublished data) was 12.0 µg/mL (≈ 86.3 µM) and the LC50 (fathead minnow) was 44.8 µg/mL (≈ 322 µM).
